Patent publication US6391888B1, “Topical anesthetics useful for treating cancer” (Mayo Foundation for Medical Education and Research, priority 1999, dated 2002)

Tests used:
[1] = tested on: calcium-activated, phospholipid-dependent protein kinase (PKC); details: data suggesting; M. K. Tomoda et al., 1990; cited from earlier work
PKCδ = PKCδ (Homo sapiens, UniProt Q05655); experiment: lidocaine binding to and modulation of PKCδ (applicant's discovery, no method given); assay type: biochemical; details: calcium independent PKC isozyme PKCδ; qualitative statement
Sequence of PKCδ (Q05655 whole entry): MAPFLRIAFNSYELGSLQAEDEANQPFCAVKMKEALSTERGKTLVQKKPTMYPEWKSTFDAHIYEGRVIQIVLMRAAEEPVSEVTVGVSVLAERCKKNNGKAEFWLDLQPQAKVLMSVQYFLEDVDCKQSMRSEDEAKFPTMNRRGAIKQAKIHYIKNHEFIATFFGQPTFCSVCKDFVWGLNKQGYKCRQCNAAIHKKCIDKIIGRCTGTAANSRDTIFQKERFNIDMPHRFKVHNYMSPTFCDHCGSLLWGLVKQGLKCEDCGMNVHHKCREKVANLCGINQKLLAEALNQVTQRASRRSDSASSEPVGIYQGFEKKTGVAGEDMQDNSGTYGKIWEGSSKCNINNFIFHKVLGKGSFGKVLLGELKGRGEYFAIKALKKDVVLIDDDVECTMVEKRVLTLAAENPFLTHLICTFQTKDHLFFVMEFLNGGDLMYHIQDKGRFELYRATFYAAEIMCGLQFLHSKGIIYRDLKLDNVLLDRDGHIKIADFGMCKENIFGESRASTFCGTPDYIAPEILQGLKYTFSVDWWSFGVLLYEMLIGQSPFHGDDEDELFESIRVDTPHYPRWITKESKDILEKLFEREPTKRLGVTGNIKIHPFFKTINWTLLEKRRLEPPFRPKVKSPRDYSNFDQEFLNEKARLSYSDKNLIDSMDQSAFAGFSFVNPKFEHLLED

## CCN(CC)CC(=O)Nc1c(C)cccc1C [lidocaine, (2-diethylamino)-N-(2,6-dimethylphenyl)-acetamide]
[1]
  inhibition of calcium-activated, phospholipid-dependent protein kinase (PKC): inhibits
PKCδ
  binding to and modulation of the effects of PKCδ: binds to and modulates (e.g. inhibits)
